Assay results as given in ChEMBL document CHEMBL5715954, “Silencing c-Myc translation as a therapeutic strategy through targeting PI3Kδ and CK1ε in hematological malignancies” (Blood, 2017).

Assays:
Parameters in all cases: scale not given: the % may be the effect or the level left
[1] = target: T1, Serine/threonine-protein kinase LATS2 (Homo sapiens) (UniProt Q9NRM7); test: Inhibition of human LATS2 assessed as enzyme activity at 1 uM using KKRNRRLSVA as substrate preincubated for 20 mins followed by [gamma-33P]-ATP addition and measured after 120 mins by radiometric Hot-SpotSM Kinase assay relative to control
T1 sequence (whole entry): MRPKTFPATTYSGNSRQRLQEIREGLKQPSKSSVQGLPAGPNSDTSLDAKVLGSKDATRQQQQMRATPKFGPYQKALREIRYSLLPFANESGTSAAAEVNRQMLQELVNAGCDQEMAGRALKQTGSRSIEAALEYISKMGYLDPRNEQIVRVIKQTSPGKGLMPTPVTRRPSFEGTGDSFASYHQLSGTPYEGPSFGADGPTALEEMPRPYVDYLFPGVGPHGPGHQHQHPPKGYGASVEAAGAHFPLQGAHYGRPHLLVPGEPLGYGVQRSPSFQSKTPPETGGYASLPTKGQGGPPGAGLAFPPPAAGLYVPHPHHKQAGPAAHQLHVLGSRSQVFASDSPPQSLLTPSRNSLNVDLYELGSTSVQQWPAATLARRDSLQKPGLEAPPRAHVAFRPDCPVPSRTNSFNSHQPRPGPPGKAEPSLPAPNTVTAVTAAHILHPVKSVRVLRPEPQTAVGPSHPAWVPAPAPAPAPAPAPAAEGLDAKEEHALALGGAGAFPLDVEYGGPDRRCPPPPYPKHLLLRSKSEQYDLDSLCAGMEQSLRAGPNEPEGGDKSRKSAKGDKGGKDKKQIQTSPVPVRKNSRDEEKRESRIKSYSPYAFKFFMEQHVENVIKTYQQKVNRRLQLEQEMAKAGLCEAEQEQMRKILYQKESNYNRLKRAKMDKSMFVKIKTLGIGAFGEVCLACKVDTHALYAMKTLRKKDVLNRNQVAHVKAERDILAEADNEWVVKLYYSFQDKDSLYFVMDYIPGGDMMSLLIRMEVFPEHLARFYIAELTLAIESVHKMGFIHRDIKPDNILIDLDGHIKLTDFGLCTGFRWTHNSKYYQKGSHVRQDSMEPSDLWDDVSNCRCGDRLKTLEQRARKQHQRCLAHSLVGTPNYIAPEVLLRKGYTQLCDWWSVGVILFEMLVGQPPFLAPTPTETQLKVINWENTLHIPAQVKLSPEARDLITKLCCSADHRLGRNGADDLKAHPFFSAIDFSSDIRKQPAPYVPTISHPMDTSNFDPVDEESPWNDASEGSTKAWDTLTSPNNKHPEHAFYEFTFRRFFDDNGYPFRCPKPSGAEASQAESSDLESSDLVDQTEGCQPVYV

[2] = target: T2, Mitogen-activated protein kinase kinase kinase 6 (Homo sapiens) (UniProt O95382); test: Inhibition of human MEKK6 assessed as enzyme activity at 1 uM using myelin basic protein as substrate preincubated for 20 mins followed by [gamma-33P]-ATP addition and measured after 120 mins by radiometric Hot-SpotSM Kinase assay relative to control
T2 sequence (whole entry): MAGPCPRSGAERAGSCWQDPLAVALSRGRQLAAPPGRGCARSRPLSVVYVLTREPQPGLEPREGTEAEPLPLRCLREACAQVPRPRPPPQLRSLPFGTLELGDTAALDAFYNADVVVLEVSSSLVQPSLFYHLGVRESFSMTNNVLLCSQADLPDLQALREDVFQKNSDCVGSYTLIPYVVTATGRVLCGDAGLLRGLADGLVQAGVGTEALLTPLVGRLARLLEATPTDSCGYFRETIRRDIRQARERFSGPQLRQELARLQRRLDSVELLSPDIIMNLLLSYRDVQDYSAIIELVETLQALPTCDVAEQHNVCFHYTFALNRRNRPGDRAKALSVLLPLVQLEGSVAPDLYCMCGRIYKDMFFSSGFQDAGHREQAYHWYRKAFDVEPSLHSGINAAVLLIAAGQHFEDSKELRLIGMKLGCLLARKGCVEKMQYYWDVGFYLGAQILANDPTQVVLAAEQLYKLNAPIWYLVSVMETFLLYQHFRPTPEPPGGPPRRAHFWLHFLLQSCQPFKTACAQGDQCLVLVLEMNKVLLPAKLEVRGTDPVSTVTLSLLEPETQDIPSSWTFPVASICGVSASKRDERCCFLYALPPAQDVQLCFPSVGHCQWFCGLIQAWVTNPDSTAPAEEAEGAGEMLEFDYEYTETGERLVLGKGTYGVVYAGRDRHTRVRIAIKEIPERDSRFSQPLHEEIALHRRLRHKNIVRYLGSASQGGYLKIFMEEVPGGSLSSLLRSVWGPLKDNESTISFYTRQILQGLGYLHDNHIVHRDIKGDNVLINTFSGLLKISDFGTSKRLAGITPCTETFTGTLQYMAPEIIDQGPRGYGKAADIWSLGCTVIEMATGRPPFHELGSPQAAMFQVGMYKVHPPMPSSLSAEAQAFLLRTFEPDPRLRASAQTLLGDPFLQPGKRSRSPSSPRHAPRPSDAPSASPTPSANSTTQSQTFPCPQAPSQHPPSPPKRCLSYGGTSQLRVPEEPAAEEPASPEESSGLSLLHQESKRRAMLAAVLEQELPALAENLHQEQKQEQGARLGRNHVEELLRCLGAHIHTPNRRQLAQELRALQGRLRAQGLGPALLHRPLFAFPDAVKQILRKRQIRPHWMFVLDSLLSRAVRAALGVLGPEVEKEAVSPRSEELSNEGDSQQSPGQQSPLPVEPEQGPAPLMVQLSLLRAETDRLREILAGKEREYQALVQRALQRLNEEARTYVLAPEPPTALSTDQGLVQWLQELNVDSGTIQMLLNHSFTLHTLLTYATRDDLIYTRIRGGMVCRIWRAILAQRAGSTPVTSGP

[3] = target: Casein kinase I isoform gamma-1 (Homo sapiens) (UniProt Q9HCP0); test: Inhibition of human CK1g1 assessed as enzyme activity at 1 uM using KRRRAL[pS]VASLPGL as substrate preincubated for 20 mins followed by [gamma-33P]-ATP addition and measured after 120 mins by radiometric Hot-SpotSM Kinase assay relative to control
Chain of Casein kinase I isoform gamma-1 (Homo sapiens) (Q9HCP0 whole entry, looked up, canonical isoform): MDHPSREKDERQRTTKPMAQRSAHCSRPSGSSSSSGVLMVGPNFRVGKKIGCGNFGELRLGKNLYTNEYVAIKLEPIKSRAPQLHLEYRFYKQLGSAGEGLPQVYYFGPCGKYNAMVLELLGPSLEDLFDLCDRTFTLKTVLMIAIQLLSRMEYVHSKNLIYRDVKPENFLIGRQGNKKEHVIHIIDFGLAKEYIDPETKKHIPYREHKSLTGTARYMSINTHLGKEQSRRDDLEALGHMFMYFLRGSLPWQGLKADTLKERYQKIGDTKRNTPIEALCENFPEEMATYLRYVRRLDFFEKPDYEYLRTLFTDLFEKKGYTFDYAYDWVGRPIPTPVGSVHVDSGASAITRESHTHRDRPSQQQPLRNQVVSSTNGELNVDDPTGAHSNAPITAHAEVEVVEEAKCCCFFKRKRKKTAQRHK

[4] = target: Mitogen-activated protein kinase kinase kinase 1 (Homo sapiens) (UniProt Q13233); test: Inhibition of human MEKK1 assessed as enzyme activity at 1 uM using myelin basic protein as substrate preincubated for 20 mins followed by [gamma-33P]-ATP addition and measured after 120 mins by radiometric Hot-SpotSM Kinase assay relative to control
Chain of Mitogen-activated protein kinase kinase kinase 1 (Homo sapiens) (Q13233 whole entry): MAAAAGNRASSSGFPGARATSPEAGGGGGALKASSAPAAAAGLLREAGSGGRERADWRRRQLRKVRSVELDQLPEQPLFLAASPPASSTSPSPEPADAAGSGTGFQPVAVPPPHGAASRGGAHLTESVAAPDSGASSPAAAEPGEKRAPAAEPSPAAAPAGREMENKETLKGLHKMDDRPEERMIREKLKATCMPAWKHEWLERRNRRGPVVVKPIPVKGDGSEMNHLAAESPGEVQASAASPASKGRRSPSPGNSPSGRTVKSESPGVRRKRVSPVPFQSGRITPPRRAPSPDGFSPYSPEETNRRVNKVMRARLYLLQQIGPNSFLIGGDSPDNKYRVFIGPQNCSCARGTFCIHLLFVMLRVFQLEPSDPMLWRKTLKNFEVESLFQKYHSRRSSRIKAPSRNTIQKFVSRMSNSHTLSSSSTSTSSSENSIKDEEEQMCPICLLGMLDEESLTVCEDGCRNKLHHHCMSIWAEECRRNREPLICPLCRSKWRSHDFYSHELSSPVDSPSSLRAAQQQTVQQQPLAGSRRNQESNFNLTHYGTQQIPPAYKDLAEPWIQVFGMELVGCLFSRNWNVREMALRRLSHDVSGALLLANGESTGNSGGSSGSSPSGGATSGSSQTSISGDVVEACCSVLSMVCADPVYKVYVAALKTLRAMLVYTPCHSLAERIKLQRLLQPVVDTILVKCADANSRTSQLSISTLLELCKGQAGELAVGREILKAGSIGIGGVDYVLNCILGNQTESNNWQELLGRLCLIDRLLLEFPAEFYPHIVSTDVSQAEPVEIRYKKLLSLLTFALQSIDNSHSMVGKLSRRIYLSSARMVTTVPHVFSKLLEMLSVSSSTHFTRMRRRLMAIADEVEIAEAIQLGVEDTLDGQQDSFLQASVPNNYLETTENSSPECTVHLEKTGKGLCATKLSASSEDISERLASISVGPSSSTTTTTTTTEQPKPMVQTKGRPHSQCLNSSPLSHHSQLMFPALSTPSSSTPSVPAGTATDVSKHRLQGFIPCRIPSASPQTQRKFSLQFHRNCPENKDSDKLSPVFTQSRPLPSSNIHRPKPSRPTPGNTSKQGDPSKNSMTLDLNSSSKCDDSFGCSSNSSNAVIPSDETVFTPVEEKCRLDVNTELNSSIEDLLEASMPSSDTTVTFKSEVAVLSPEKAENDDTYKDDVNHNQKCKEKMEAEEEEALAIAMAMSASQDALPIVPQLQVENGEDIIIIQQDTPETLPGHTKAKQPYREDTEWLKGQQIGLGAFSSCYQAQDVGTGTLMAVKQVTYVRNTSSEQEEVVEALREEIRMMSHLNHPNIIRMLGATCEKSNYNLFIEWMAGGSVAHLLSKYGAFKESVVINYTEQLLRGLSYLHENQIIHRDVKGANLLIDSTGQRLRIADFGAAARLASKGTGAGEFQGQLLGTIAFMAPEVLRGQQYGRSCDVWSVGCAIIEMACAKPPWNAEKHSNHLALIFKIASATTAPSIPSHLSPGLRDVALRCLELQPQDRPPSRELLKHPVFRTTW

Compound	Activity [1] [%]	Activity [2] [%]	Activity [3] [%]	Activity [4] [%]
CC[C@H](Nc1ncnc2[nH]cnc12)c1nc2cccc(F)c2c(=O)n1-c1ccccc1	91.5	96.6	105	101
CC(C)Oc1ccc(-c2nn([C@@H](C)c3oc4ccc(F)cc4c(=O)c3-c3cccc(F)c3)c3ncnc(N)c23)cc1F [UMBRALISIB]	103	93.9	97.6	101
C[C@H](Nc1ncnc2nc[nH]c12)c1cc2cccc(Cl)c2c(=O)n1-c1ccccc1	91.9	97.5	98.3	107
